Experimental data: patent publication US10610506B2 (UCL Business PLC, priority 2004, dated 2020)
“Also recorded” adds a separate entry of the source.

Legend:
[1] = system: neutrophils; settings: blood incubated 1 hour with increasing concentrations of ammonia; 10 ng/ml IL-8 (FIG. 3)
Protocol: Neutrophil Chemotaxis: Neutrophil chemotaxis was measured using a modified Boyden chamber method using interleukin-8 as chemo-attractant to stimulate chemokinesis.
(§1) Blood was collected from healthy volunteers (n=15) and incubated for 1 hour with increasing concentrations of ammonia. The ability of the neutrophils to phagocytose bacteria was measured using the Phagotest and Neutrophil chemotaxis assays. 10 ng/ml IL-8 was used in the Neutrophil chemotaxis assay.

[2] = system: neutrophils; assay: Phagotest neutrophil phagocytosis, blood incubated with ammonia and amino acids; assay type: cell-based, human
Protocol: Methods for Measurement of Neutrophil Phagocytosis and oxidative burst Phagotest: Heparinised whole blood was incubated with opsonised FITC-labelled E coil and CD16. The cells were then analysed by flow cytometry (FACScan Becton Dickinson), gated through forward and side scatter and subsequently assessed on the basis of R-phycoerythrin (PE) [Immunotech, Marseille, France] flurochrome expression to identify CD16 positive cells. The gated population was then assessed for the presence of FITC-labelled bacteria.
as §1
Blood was collected from healthy volunteers (n=15) and incubated for 1 hour with ammonia and selected amino acids. The ability of the neutrophils to phagocytose bacteria was measured using the Phagotest assay.

[3] = system: patients with biopsy proven cirrhosis of the liver; assay: Simulated gastrointestinal bleed in cirrhotic patients, neutrophil chemotaxis with isoleucine infusion; assay type: in vivo, human; settings: after simulated bleed (75 g amino acid mixture), isoleucine iv over 2 hours
Description: Ten overnight fasted, metabolically stable patients with biopsy proven cirrhosis of the liver [9 males and 1 female; mean 49.6 years (SEM 9.1); mean Child-Pugh score of 7.8 (SEM 1.2)] were studied prior to and two hours after an oral administration of 75 grams of an amino acid mixture that mimics the hemoglobin molecule (Nutricia, Cuijk, Netherlands). In seven other patients [4 male and 3 female; mean 51.4 years (SEM 6.7); mean Child-Pugh score of 8.1 (SEM 1.4)], following administration of the amino acid mixture, isoleucine was administered intravenously over a 2 hour period (iso-osmotic solution containing 40 mg/l of isoleucine at a rate of 100 ml/hr). Neutrophil chemotaxis (see Example 1 for method) and plasma ammonia were measured in peripheral venous blood samples.

[4] = system: patients with biopsy-proven cirrhosis of the liver; assay: Simulated bleed with isoleucine supplementation: protein kinetics (Phe model) and ammonia; assay type: in vivo, human; settings: for Net Balance / Protein breakdown / Protein synthesis: mean ± SEM
Protocol: Sixteen metabolically stable patients with biopsy-proven cirrhosis of the liver were studied. Patients were randomized either to supplementation with isoleucine (40 mg/L solution; 50 ml/hr) or placebo during a simulated bleed over a 4-hour period. Protein synthesis (measured using primed continuous infusion of L-[ring-^2H5]phenylalanine), L-[ring-^2H4]tyrosine and L[ring-^2H2]tyrosine) and ammonia.

[5] = system: patients with cirrhosis admitted for management of variceal bleeding; assay: Open labelled study of isoleucine and OIP after variceal bleeding; assay type: in vivo, human
Protocol: • 1. Groups—2 patients per group. Total 6 • 2. Inclusion criteria • Adult patients aged 18-80 years, liver cirrhosis documented by histology or clinical criteria, Child B or C, recent Gastrointestinal bleed from varices (<6 hours after presentation), informed consent/assent. • 3. Exclusion criteria • other concomitant neurological disorder, use of another specific ammonia lowering drug, respiratory failure requiring mechanical ventilation and sedation, uncontrolled gastrointestinal bleeding, hypotension requiring inotropes, overt renal failure (creatinine >2 nag/dl), hemodialysis, extracorporeal liver support, known hypersensitivity to any of the study drugs, pregnancy/lactation. Methods
In an open labelled study, we included 6 patients with cirrhosis and who were admitted for management of variceal bleeding. They were matched for the severity of liver disease (see Table 4). They were treated with one of the following regimes for a 3 day period and observations were made for 5 days. The study groups were:
i. Placebo: 5% Dextrose over 4 hours (250 ml)
ii. Isoleucine alone: 10 gm IV in 250 ml 5% Dextrose over 2 hours in two divided doses.
Patients were fasted overnight between 0000 midnight and 0800 am. They were fed intragastrically with a diet of 25 KCal/Kg that included 1 g/Kg protein diet starting at 0800 and finishing at midnight. Blood was sampled at 0730 am and then at 1800 hr for the measurement of ammonia and glutamine. Patients were monitored closely for side effects. The drug was tolerated well in each of the groups and no adverse events were observed. Because the patients received sedation for their initial endoscopy, the mental state assessment was impossible to interpret. One patient each in the Placebo and the Isoelucine groups died from multiorgan failure in the hospital. The rest of the patients survived.

[6] = system: devascularized pig model of acute liver failure; assay: Devascularized pig model of acute liver failure; assay type: in vivo, pigs; settings: for muscle ammonia uptake/production (femoral vein-artery): FIG. 23
Protocol: Pigs had catheters inserted into the femoral artery and vein, portal vein, renal vein and pulmonary artery. The experiment started at time=−1 hr, when placebo or treatment infusions were started.
1. Placebo: 5% Dextrose over 3 hours, oral water placebo
At the end of the experiment a section of frontal cortex was removed for brain water measurements.

[7] = system: patients with cirrhosis and hyperammonemia; assay: Open labelled study of ornithine, phenylbutyrate and OP in hepatic encephalopathy; assay type: in vivo, human; settings: for mean ammonia levels: over the period of treatment (FIG. 11); for mean glutamine levels: over the period of treatment (FIG. 12)
Description: • 1. Groups-3 patients per group. Total 12. • 2. Inclusion criteria • adult patients aged 18-80 years, —liver cirrhosis documented by histology or clinical criteria • HE type C, ammonia concentration of >80 umol/L, informed consent/assent • 3. Exclusion criteria • other concomitant neurological disorder, —use of another specific ammonia lowering drug, —respiratory failure requiring mechanical ventilation and sedation, —uncontrolled gastrointestinal bleeding, —hypotension requiring inotropes, overt renal failure (creatinine >2 mg/dl), hemodialysis, —extracorporeal liver support, known hypersensitivity to any of the study drugs, —pregnancy. Assessment of Mental State
In an open labelled study, we included 8 patients with cirrhosis and hyperammonemia. They were matched for the severity of liver disease (see Table 3). They were treated with one of the following regimes for a 3 day period and observations were made for 5 days. The study groups were:
(i) Placebo: 5% Dextrose over 4 hours;
(iii) Phenylbutyrate: 10 g twice daily, orally (0800 and 1600); and
Patients were fasted overnight between 0000 midnight and 0800 am. They were fed intragastrically with a diet of 25 KCal/Kg that included 1 g/Kg protein diet starting at 0800 and finishing at midnight. Blood was sampled at 0730 am and then at 1800 hr for the measurement of ammonia and glutamine. Patients were monitored closely for side effects.

[8] = system: patients with HE grade 3 undergoing heamofiltration; assay: LOLA infusion in patients undergoing heamofiltration (CVVH); assay type: in vivo, human
Description: (§2) Blood was sampled for the measurement of ammonia and glutamine.

[9] = system: patients with advanced cirrhosis; assay: Aspartate accumulation during L-ornithine L-aspartate treatment; assay type: in vivo, human
[10] = system: patients with cirrhosis; assay: LOLA infusion in cirrhosis with HE: ammonia and glutamine; assay type: in vivo, human
Description: as §2

[11] = system: BDL cirrhotic rats; assay: Bile duct ligated rat model, IP ornithine, phenylbutyrate, OP; assay type: in vivo, Sprague-Dawley rats
Protocol: Male Sprague-Dawley rats (200-250 g) were used for this procedure. Following anaesthetisation, a mid-line laparotamy was performed, the bile duct was exposed, triply ligated with 4.0 silk suture, and severed between the second and third ligature. The wound was closed in layers with absorbable suture, and the animal allowed to recover in a quiet room before being returned to the animal storage facility. Animals were kept at a constant temperature (20° C.) in a 12 hour light/dark cycle with access to water and standard rodent chow ad libitum. […] At six weeks, under anaesthesia a right carotid arterial catheter was inserted and used to collect repeated blood samples. Following this procedure a baseline sample was collected prior to administration of the study formulations by IP injection. […] Blood samples were collected into pre-cooled […] tubes and stored on ice prior to processing. Plasma was collected following centrifugation (3,000 rpm, 10 mins) and stored at -80° C. prior to analyses. Ammonia, glucose, lactate and urea were measured using a COBRAS Mira S according to manufacturers instructions. Amino acids were quantified by HPLC with fluorescence detection.

[12] = LOLA 40 g over 8 hours (FIG. 8)

In the case of N [ammonia], the neutrophil chemotaxis [1] was “significant reduction” and the neutrophil phagocytosis ([2]; blood of healthy volunteers incubated 1 hour with increasing concentrations of ammonia (FIG. 2)) was “significant reduction”.
NC(=O)CC[C@H](N)C(=O)O [glutamine] was tested, and the “ammonia-induced reduction in neutrophil phagocytosis” value ([2]; blood incubated 1 hour with ammonia and selected amino acid (FIG. 4)) was “partially reversed”.
CC[C@H](C)[C@H](N)C(=O)O [isoleucine] was tested, and the neutrophil chemotaxis [3] was 25.4 (±6.0) cells/high power field, the “Net Balance” value ([4]; Leg, End) was 261 ± 102 nmol/kg body cell mass/min and the Protein breakdown ([4]; Leg, End) was 159 ± 100 nmol/kg body cell mass/min. For the same molecule, the Protein synthesis ([4]; Leg, End) was 377 ± 135 nmol/kg body cell mass/min, the “Net Balance” value ([4]; Leg, t = 0 hours) was −185 ± 152 nmol/kg body cell mass/min and the Protein breakdown ([4]; Leg, t = 0 hours) was 196 ± 61 nmol/kg body cell mass/min. For the same molecule, the Protein synthesis ([4]; Leg, t = 0 hours) was −31 ± 201 nmol/kg body cell mass/min, the Protein synthesis ([4]; Liver, End (final hour of amino acid infusion)) was 839 ± 221 nmol/kg body cell mass/min and the “Net Balance” value ([4]; Liver, End) was 682 ± 165 nmol/kg body cell mass/min. For the same molecule, the Protein breakdown ([4]; Liver, End) was 157 ± 204 nmol/kg body cell mass/min, the “Net Balance” value ([4]; Liver, t = 0 hours) was 98 ± 33 nmol/kg body cell mass/min and the Protein breakdown ([4]; Liver, t = 0 hours) was 109 ± 25 nmol/kg body cell mass/min. The Protein synthesis ([4]; Liver, t = 0 hours) was 218 ± 37 nmol/kg body cell mass/min, the “protein synthesis of liver and muscle” value ([4]; isoleucine infusion during simulated bleed) was “restores impaired protein synthesis” and the “ammonia concentration, isoleucine versus placebo” value ([4]; simulated bleed over 4 hours (FIG. 7)) was “not significantly different”. The “patients died from multiorgan failure in the hospital” value ([5]; 2 patients per group) was “One”, the ammonia concentrations ([5]; FIG. 14) was “no significant changes” and the glutamine levels ([5]; FIG. 15) was “not significantly altered”. The Dead/Alive ([5]; individual patients P3-P6, listed as Isoleucine alone) was “P3: A; also recorded: P4: D”.
For NCCC[C@H](N)C(=O)O [ornithine], the arterial ornithine levels ([6]; FIG. 27) was “increase”, the mean ammonia levels [7] was “increased from baseline values” and the mean glutamine levels [7] was “increase”. The Ornithine levels ([5]; over the course of OIP treatment, reduced to basal values on stopping the drug (FIG. 18)) was “marked sustained increase”.
In the case of L-ornithine L-aspartate [LOLA], the ammonia concentration ([8]; LOLA 40 g over 8 hours with CVVH (FIG. 9)) was “reduction”, the glutamine concentration ([8]; LOLA with addition of dialysis (FIG. 9)) was “prevented the concomitant increase” and the ASPARTATE concentration ([9]; Day 1, 40 g/day) was 178 µmol/L. The ASPARTATE concentration ([9]; Day 2, 40 g/day) was 289 µmol/L, the ASPARTATE concentration ([9]; Day 3, 40 g/day) was 354 µmol/L and the ASPARTATE concentration ([9]; PRE, 40 g/day L-ornithine L-aspartate) was 72 µmol/L. The “increase in the aspartate concentration” value ([9]; over a 3 day period) was 5 times the basal value, the “severity of HE” value ([10]; LOLA 40 g over 8 hours) was “beneficial effects” and the ammonia concentration [10, 12] was “significant reduction”. The glutamine concentration [10, 12] was “concomitant rise”, the “recurrence of HE” value ([10]; after LOLA was stopped) was 3 of the 6 and the “circulating ammonia levels when LOLA was stopped” value ([10]; after stopping infusion) was “rebound increase”.
With phenylbutyrate the plasma ammonia ([11]; after 1 hour, p<0.01 vs all other groups) was “significant increase”, the plasma ammonia ([11]; three hour time point / end of the study) was “difference was found to be smaller” and the arterial ammonia ([6]; 0.3 g/Kg each over 3 hours, to experiment termination (FIG. 22), listed as Phenylbutyrate alone) was “initial blunting of arterial ammonia levels, which quickly rises to levels comparable with ornithine alone at experiment termination; also recorded: insignificant effects”. For the same molecule, the “muscle ammonia uptake/production (femoral vein-artery)” value ([6]; listed as P alone) was “increase in ammonia production by the muscle”, the “muscle ammonia uptake/production (femoral vein-artery)” value ([6]; listed as Phenylbutyrate alone) was “little change” and the “gut ammonia production (portal drained viscera-artery)” value ([6]; FIG. 24) was “appreciable”. The muscle glutamine release ([6]; FIG. 25, listed as Phenylbutyrate alone) was “net removal”, the gut glutamine uptake ([6]; FIG. 26) was “little overt effect” and the arterial glutamine levels ([6]; FIG. 28) was “marginally increases”. For the same molecule, the Dead/Alive ([7]; individual patients P3-P8, listed as Phenylbutyrate alone) was “P5: A; also recorded: P6: A”, the mean ammonia levels [7] was “increased from baseline values” and the mean glutamine levels [7] was “reduction”.
